Measured values taken from the NIST ThermoML archive (doi:10.1016/j.jct.2008.02.005).
Numbers after ± are expanded uncertainties.

Key:
[1] = xn = mol fraction of the nth substance listed; conditions: 101 kPa, Liquid, x2 = 0; for viscosity: Capillary tube (Ostwald / Ubbelohde) method; for speed of sound: Sing-around technique in a fixed-path interferometer
[2] = 101 kPa, Liquid; for viscosity: Capillary tube (Ostwald / Ubbelohde) method; for speed of sound: Sing-around technique in a fixed-path interferometer

Compound `CCCCCCCC` [octane] + CCCCCCCCO has a viscosity ([1]; 298.15 K) of 0.518 ± 0.007 mPa·s, a speed of sound ([1]; 298.15 K) of 1172.7 ± 0.8 m/s and a mass density ([1]; 298.15 K) of 698.58 ± 0.77 kg/m3. For the same compound, the speed of sound ([1]; 303.15 K) was 1152.1 ± 0.8 m/s, the mass density ([1]; 303.15 K) was 694.497 ± 0.78 kg/m3 and the speed of sound ([1]; 308.15 K) was 1131.7 ± 0.8 m/s. For the same compound, the mass density ([1]; 308.15 K) was 690.416 ± 0.78 kg/m3.
With `CCCCCC` [hexane] + CCCCCCCCO the viscosity ([1]; 298.15 K) was 0.313 ± 0.007 mPa·s, the speed of sound ([1]; 298.15 K) was 1077.8 ± 1.2 m/s and the mass density ([1]; 298.15 K) was 655.072 ± 0.92 kg/m3. The speed of sound ([1]; 303.15 K) was 1055.2 ± 1.2 m/s, the mass density ([1]; 303.15 K) was 650.369 ± 0.92 kg/m3 and the speed of sound ([1]; 308.15 K) was 1032.9 ± 1.1 m/s. For the same compound, the mass density ([1]; 308.15 K) was 645.767 ± 0.93 kg/m3.
For `CCCCCCCCCC` [decane] + CCCCCCCCO, the viscosity ([1]; 298.15 K) was 0.852 ± 0.015 mPa·s, the speed of sound ([1]; 298.15 K) was 1234.8 ± 3.1 m/s and the mass density ([1]; 298.15 K) was 726.806 ± 1.7 kg/m3. The speed of sound ([1]; 303.15 K) was 1215.2 ± 3.1 m/s, the mass density ([1]; 303.15 K) was 723.042 ± 1.7 kg/m3 and the speed of sound ([1]; 308.15 K) was 1195.6 ± 3.1 m/s. The mass density ([1]; 308.15 K) was 719.23 ± 1.7 kg/m3.
With `CCCCCCCCO` [octan-1-ol] the mass density ([2]; 298.15 K) was 821.813 ± 0.54 kg/m3, the viscosity ([2]; 298.15 K) was 7.508 ± 0.042 mPa·s and the speed of sound ([2]; 298.15 K) was 1348 ± 0.8 m/s. It also gave a mass density ([2]; 303.15 K) of 818.796 ± 0.54 kg/m3, a speed of sound ([2]; 303.15 K) of 1330.8 ± 0.8 m/s and a mass density ([2]; 308.15 K) of 815.286 ± 0.55 kg/m3. For the same compound, the speed of sound ([2]; 308.15 K) was 1314.1 ± 0.8 m/s.
`CCCCCCCCCC` [decane] showed a mass density ([2]; 298.15 K) of 726.806 ± 1.7 kg/m3, a viscosity ([2]; 298.15 K) of 0.852 ± 0.015 mPa·s and a speed of sound ([2]; 298.15 K) of 1234.8 ± 3.1 m/s. For the same compound, the mass density ([2]; 303.15 K) was 723.042 ± 1.7 kg/m3, the speed of sound ([2]; 303.15 K) was 1215.2 ± 3.1 m/s and the mass density ([2]; 308.15 K) was 719.23 ± 1.7 kg/m3. For the same compound, the speed of sound ([2]; 308.15 K) was 1195.6 ± 3.1 m/s.
For `CCCCCCCC` [octane], the mass density ([2]; 298.15 K) was 698.58 ± 0.77 kg/m3, the viscosity ([2]; 298.15 K) was 0.518 ± 0.007 mPa·s and the speed of sound ([2]; 298.15 K) was 1172.7 ± 0.8 m/s. The mass density ([2]; 303.15 K) was 694.497 ± 0.78 kg/m3, the speed of sound ([2]; 303.15 K) was 1152.1 ± 0.8 m/s and the mass density ([2]; 308.15 K) was 690.416 ± 0.78 kg/m3. The speed of sound ([2]; 308.15 K) was 1131.7 ± 0.8 m/s.
For `CCCCCC` [hexane], the mass density ([2]; 298.15 K) was 655.072 ± 0.92 kg/m3, the viscosity ([2]; 298.15 K) was 0.313 ± 0.007 mPa·s and the speed of sound ([2]; 298.15 K) was 1077.8 ± 1.2 m/s. For the same compound, the mass density ([2]; 303.15 K) was 650.369 ± 0.92 kg/m3, the speed of sound ([2]; 303.15 K) was 1055.2 ± 1.2 m/s and the mass density ([2]; 308.15 K) was 645.767 ± 0.93 kg/m3. It also gave a speed of sound ([2]; 308.15 K) of 1032.9 ± 1.1 m/s.
